Results published in patent publication US20130150386A1 (priority 2011, published 2013).

Columns and labels:
[1] = test system: NSCLC patients; conditions: E-cad 3+ sub-group [N=26]
[2] = in vivo; cited from earlier work

In the case of `C#Cc1cccc(Nc2ncnc3cc(OCCOC)c(OCCOC)cc23)c1` [erlotinib/placebo], the overall survival [1] is reported as 5.4 months.
For `Nc1ccccc1NC(=O)c1ccc(CNC(=O)OCc2cccnc2)cc1` [Entinostat, N-(2-aminophenyl)-4-[N-(pyridine-3-yl)methoxycarbonylamino-methyl]-benzamide], the half-life [2] is given as “about 100 hours”.
